Source: patent publication US20170051149A1, “AZOARYLS AS REVERSIBLY MODULATABLE TUBULIN INHIBITORS” (ECOLE NORMALE SUPERIEURE DE LYON, priority 2014, published 2017)

How the values were obtained:
MDA-MB-231 = test: membrane permeability, PI uptake in nonpermeabilized cells; format: cell-based; details: 15 nM, 70 h
Method: (§1) Membrane integrity was assessed as a marker of cellular viability, via examining the uptake of propidium iodide (PI) in nonpermeabilized cells according to a standard protocol. Namely, cells were harvested and incubated with 5 μg/mL PI in PBS containing 2% FCS (foetal calf serum), and immediately analysed by flow cytometry using a FACSCalibur flow cytometer.

HeLa [1] = test: as above; format: cell-based; details: 15 nM, 70 h
Method: as §1

Jurkat cells [2] = test: as above; format: cell-based; details: 15 nM, 48 h
Method: as §1

HeLa cells [3] = test: MTT assay; format: cell-based; details: 50 nM, 48 h
Description: The cytotoxic properties of I.1 were subsequently confirmed with another method, using the quantification of mitochondrial dehydrogenase activity of cells as determined by the level of 3-(4.5-dimethylthiazol-2-yl)-2.5-diphenyl tetrazolium bromide (MTT) reduction to its purple formazan, according to standard protocol^[30]. […] Cells were kept in the dark, or exposed to a pulsed toxic regime of 390 nm only, or exposed to a strong rescue protocol with pulses of 390 nm then 505 nm light. Pulses of light were applied every 30 s; 390 nm light pulses lasted 150 ms every 30 s, while the 505 nm light pulses were applied for 500 ms; in the strong rescue regime, the 505 nm pulse was synchronised so that it began immediately after the 390 nm pulse ended.
Cellular viability was measured 48 h later, namely, cells were incubated with MTT for three hours and after dissolution of the formazan crystals with DMSO, absorbance at 550 nm was measured using a FLUOstar Omega microplate reader. Results are shown in Table 5 below and are expressed as a fold growth relative to the control growth of the cells treated only with a co-solvent (0.5% MeCN) and represent mean and standard deviation of quadruplicates of the optical density values, which are proportional to the cell number.

HEK-293 = test: cell cycle analysis by PI flow cytometry; format: cell-based; details: 15 nM, 30 h
Method: (§2) The effect of compound I.1 on cell cycle progression was assessed by flow cytometry. Briefly, following the application of compound I.1 and exposure to the indicated light regime, cells were harvested on ice and incubated in a hypotonic buffer [0.1% sodium citrate, 0.1% Triton X-100 and 50 μg/mL propidium iodide (PI)] for 30 min at 4° C. Following the PI staining cells were analysed by flow cytometry using FACSCalibur flow cytometer (Becton Dickinson, Heidelberg, Germany) and Cell Quest Pro Software (Becton Dickinson). Subsequently the cell cycle analysis was performed using the FlowJo software (Tree Star Inc., Ashland, Oreg., USA).

HeLa [4] = test: cell cycle analysis by PI flow cytometry; format: cell-based; details: 15 nM, 30 h
Method: as §2

MDA-MB-231 cells = test: cell cycle analysis by PI flow cytometry; format: cell-based; details: 15 nM, 30 h
Method: as §2

HeLa cells [5] = test: nuclear fragmentation (subG1, Nicoletti), induction of apoptosis; format: cell-based; details: 15 nM, 30 h
Method: (§3) Different cell types, including MDA-MB-231, Jurkat, HeLa and HepG2 cells, were treated with indicated concentrations of compound I.1 and exposed to a 390 nm toxic regime, a rescue regime with both 390 nm and 515 nm light, or kept in the dark. Following the treatment, cells were stained with PI and the percentage of cells containing a hypodiploid amount of DNA (subG1 phase of cell cycle), was determined. Briefly, prior to analysis, cells were harvested on ice and incubated in a hypotonic buffer [0.1% sodium citrate, 0.1% Triton X-100 and 50 μg/mL propidium iodide (PI)] for 30 min at 4° C. Following the PI staining cells were analysed by flow cytometry using FACSCalibur flow cytometer (Becton Dickinson, Heidelberg, Germany) and Cell Quest Pro Software (Becton Dickinson).

Jurkat cells [6] = test: as above; format: cell-based; details: 48 h
Method: as §3

HEK-293T cells = test: MTT assay, light-dependent cell proliferation; format: cell-based; details: 72 h
tubulin = details: trans isomer; read-out: in vitro IC50, tubulin polymerisation; cited from earlier work

COc1ccc(/C=C\c2cc(OC)c(OC)c(OC)c2)cc1OP(=O)(O)O [CA4P, fosbretabulin, reference compound]
mean % cells PI+ (MDA-MB-231; 390 nm (1 s every 15 min)): 43.2%
mean % cells PI+ (MDA-MB-231; dark): 45.1%
mean % cells PI+ (HeLa [1]; 390 nm (1 s every 15 min)): 63.9%
mean % cells PI+ (HeLa [1]; dark): 62.5%
mean % cells PI+ (Jurkat cells [2]; 390 nm (350 ms every 5 min)): 5.7%
mean % cells PI+ (Jurkat cells [2]; dark): 8.0%
mean fold growth (HeLa cells [3]; 390 nm (150 ms every 30 s)): 0.38 fold
mean fold growth (HeLa cells [3]; Dark): 0.29 fold
mean % G2/M phase (HEK-293; 390 nm (1 s every 15 min)): 70.1%
mean % G2/M phase (HEK-293; dark): 72.0%
mean % G2/M phase (HeLa [4]; 390 nm (1 s every 15 min)): 69.5%
mean % G2/M phase (HeLa [4]; dark): 69.0%
mean % G2/M phase (MDA-MB-231 cells; 390 nm (1 s every 15 min)): 50.9%
mean % G2/M phase (MDA-MB-231 cells; dark): 51.3%
mean % subG1 phase (HeLa cells [5]; 390 nm light (1 s pulses every 15 min)): 12.3%
mean % subG1 phase (HeLa cells [5]; dark): 11.5%
mean % subG1 phase (Jurkat cells [6]; 5 nM, 390 nm (350 ms pulses every 5 min)): 40.4%
mean % subG1 phase (Jurkat cells [6]; 5 nM, dark): 37.5%
mean % subG1 phase (Jurkat cells [6]; 15 nM, 390 nm (350 ms pulses every 5 min)): 91.5%
mean % subG1 phase (Jurkat cells [6]; 15 nM, dark): 89.7%
fold growth relative to cosolvent control (MTT) (HEK-293T cells; 5 nM, 390 nm, 0.35 s every 2 min): 1.29
fold growth relative to cosolvent control (MTT) (HEK-293T cells; 5 nM, 390 nm, 0.35s then 490 nm, 3 s (rescue) every 2 min): 1.28
fold growth relative to cosolvent control (MTT) (HEK-293T cells; 5 nM, 410 nm, 0.35 s every 2 min): 1.19
fold growth relative to cosolvent control (MTT) (HEK-293T cells; 5 nM, 410 nm, 0.35 s then 505 nm, 3 s (rescue) every 2 min): 1.20
fold growth relative to cosolvent control (MTT) (HEK-293T cells; 5 nM, 475 nm, 3 s every 2 min): 1.12
fold growth relative to cosolvent control (MTT) (HEK-293T cells; 5 nM, 490 nm, 3 s every 2 min): 1.43
fold growth relative to cosolvent control (MTT) (HEK-293T cells; 5 nM, 505 nm, 3 s every 2 min): 1.07
fold growth relative to cosolvent control (MTT) (HEK-293T cells; 5 nM, 525 nm, 3 s every 2 min): 0.86
fold growth relative to cosolvent control (MTT) (HEK-293T cells; 5 nM, Dark): 0.82
fold growth relative to cosolvent control (MTT) (HEK-293T cells; 15 nM, 390 nm, 0.35 s every 2 min): 0.88
fold growth relative to cosolvent control (MTT) (HEK-293T cells; 15 nM, 390 nm, 0.35s then 490 nm, 3 s (rescue) every 2 min): 0.82
fold growth relative to cosolvent control (MTT) (HEK-293T cells; 15 nM, 410 nm, 0.35 s every 2 min): 0.80
fold growth relative to cosolvent control (MTT) (HEK-293T cells; 15 nM, 410 nm, 0.35 s then 505 nm, 3 s (rescue) every 2 min): 0.81
fold growth relative to cosolvent control (MTT) (HEK-293T cells; 15 nM, 475 nm, 3 s every 2 min): 0.70
fold growth relative to cosolvent control (MTT) (HEK-293T cells; 15 nM, 490 nm, 3 s every 2 min): 0.97
fold growth relative to cosolvent control (MTT) (HEK-293T cells; 15 nM, 505 nm, 3 s every 2 min): 0.75
fold growth relative to cosolvent control (MTT) (HEK-293T cells; 15 nM, 525 nm, 3 s every 2 min): 0.81
fold growth relative to cosolvent control (MTT) (HEK-293T cells; 15 nM, Dark): 0.79

CCCCCCCOc1ccc(/N=N/c2ccc(CNN[C@H](C=O)CCCCN)cc2)cc1 [P1]
IC50 (tubulin): ~100 µM
